# In patent publication US6555702B2, “Protein kinase inhibitor” (Calyx Therapeutics, Inc., priority 1997, dated 2003):
# Entries after “also recorded” stand apart in the source; their conditions may differ.
# How the values were obtained:
# Solubility (Table A) = assay type: physicochemical; details: solvents in which the compound is soluble
# NOD mice = test: Hypoglycemic effect in non-obese diabetic (NOD) mice; assay type: in vivo, mouse; details: daily oral administration, treatment mode, vs vehicle; FIG. 5
# Method: The hypoglycemic effect of Compound 2 (water-soluble analog of A1) was evaluated in the treatment mode in non-obese diabetic (NOD) mice.
# [1] = tested on: mitogen stimulated splenic T cells; test: T cell proliferation induced by IL 2; assay type: cell-based, mouse; details: stimulated with 1 U/ml IL 2
# leukemic cells = details: acute lymphoblastic leukemia; background statement; cited from earlier work
# [2] = tested on: mitogen stimulated splenic T cells; test: T cell proliferation induced by IL 12; assay type: cell-based, mouse; details: stimulated with 10 U/ml IL 12
# [3] = tested on: IL 12 secretion by splenic macrophages; test: IL 12 secretion by LPS-stimulated splenic macrophages; assay type: cell-based; details: mouse splenic macrophages, 5 ug/ml LPS, varying doses, 72 hr; FIG. 1A
# Method: The effects of these three tyrphostins on the secretion of pro-inflammatory cytokines from macrophages were compared. Mouse splenic macrophages were stimulated with 5 ugh/ml lipopolysaccharide (LPS) and treated with varying doses of tyrphostins. The cells were cultured for 72 hr and the amount of IL 12 and nitric oxide was measured. […] Similar results were obtained with respect to nitric oxide levels, with tyrphostin A1 (FIG. 1B) showing good results.
# septic shock = details: background statement; cited from earlier work
Compound,SOLUBILITY (Solubility (Table A)),inhibition of T cell proliferation [1],inhibition of T cell proliferation [2],inhibition of IL 12 secretion [3],other results
N#CC(C#N)=Cc1ccc(OCC(=O)[O-])cc1.[Na+] [Compound 5],Water,–,–,–,–
CCOC(=O)COc1ccc(C=C(C#N)C#N)cc1 [Compound 6],Chloroform Ethanol (warm),–,–,–,–
"N#CC(C#N)=Cc1ccc(C(=O)[O-])cc1.[Na+] [Compound 2, Sodium 1-cyano-3-(4-carboxy-phenyl)-acrylonitrile]",Water,–,–,–,effect on blood glucose level (NOD mice): significant effect on blood glucose level; also recorded: lowering blood glucose level
N#C/C(=C\c1ccc(O)c(O)c1)C(=O)NCc1ccccc1 [Tyrphostin B42],–,inhibited T cell proliferation,inhibited T cell proliferation,inhibited IL 12 production,prevention of growth of leukemic cells (leukemic cells): effective in preventing the growth of leukemic cells
N#CC(C#N)=Cc1ccc(O)cc1 [Compound 7],Ethanol Acetone,–,–,–,–
N#CC(C#N)=Cc1ccc([N+](=O)[O-])c(O)c1 [Tyrphostin A10],–,did not show any significant inhibition,did not show any significant inhibition,inhibited IL 12 production,protection in septic shock (septic shock): protective in septic shock
